Test results: ChEMBL document CHEMBL1132508, “N,N-dialkyl-dipeptidylamines as novel N-type calcium channel blockers” (Bioorg Med Chem Lett, 1999)
Square brackets hold non-standard residues; d marks the D form. Peptide text beside a SMILES is read from it. * marks the point of attachment. NMeL = CN[C@@H](CC(C)C)C(=O)O; Bz = O=C(c1ccccc1)*; NHtBu = CC(C)(C)N*

Experiments:
[1] = biological target: Voltage-dependent N-type calcium channel subunit alpha-1B (Homo sapiens, UniProt Q00975); test: In vitro inhibitory activity against N-type calcium channel in the IMR-32 human neuroblastoma cells; assay type: cell-based
Sequence of Voltage-dependent N-type calcium channel subunit alpha-1B (Q00975 whole entry): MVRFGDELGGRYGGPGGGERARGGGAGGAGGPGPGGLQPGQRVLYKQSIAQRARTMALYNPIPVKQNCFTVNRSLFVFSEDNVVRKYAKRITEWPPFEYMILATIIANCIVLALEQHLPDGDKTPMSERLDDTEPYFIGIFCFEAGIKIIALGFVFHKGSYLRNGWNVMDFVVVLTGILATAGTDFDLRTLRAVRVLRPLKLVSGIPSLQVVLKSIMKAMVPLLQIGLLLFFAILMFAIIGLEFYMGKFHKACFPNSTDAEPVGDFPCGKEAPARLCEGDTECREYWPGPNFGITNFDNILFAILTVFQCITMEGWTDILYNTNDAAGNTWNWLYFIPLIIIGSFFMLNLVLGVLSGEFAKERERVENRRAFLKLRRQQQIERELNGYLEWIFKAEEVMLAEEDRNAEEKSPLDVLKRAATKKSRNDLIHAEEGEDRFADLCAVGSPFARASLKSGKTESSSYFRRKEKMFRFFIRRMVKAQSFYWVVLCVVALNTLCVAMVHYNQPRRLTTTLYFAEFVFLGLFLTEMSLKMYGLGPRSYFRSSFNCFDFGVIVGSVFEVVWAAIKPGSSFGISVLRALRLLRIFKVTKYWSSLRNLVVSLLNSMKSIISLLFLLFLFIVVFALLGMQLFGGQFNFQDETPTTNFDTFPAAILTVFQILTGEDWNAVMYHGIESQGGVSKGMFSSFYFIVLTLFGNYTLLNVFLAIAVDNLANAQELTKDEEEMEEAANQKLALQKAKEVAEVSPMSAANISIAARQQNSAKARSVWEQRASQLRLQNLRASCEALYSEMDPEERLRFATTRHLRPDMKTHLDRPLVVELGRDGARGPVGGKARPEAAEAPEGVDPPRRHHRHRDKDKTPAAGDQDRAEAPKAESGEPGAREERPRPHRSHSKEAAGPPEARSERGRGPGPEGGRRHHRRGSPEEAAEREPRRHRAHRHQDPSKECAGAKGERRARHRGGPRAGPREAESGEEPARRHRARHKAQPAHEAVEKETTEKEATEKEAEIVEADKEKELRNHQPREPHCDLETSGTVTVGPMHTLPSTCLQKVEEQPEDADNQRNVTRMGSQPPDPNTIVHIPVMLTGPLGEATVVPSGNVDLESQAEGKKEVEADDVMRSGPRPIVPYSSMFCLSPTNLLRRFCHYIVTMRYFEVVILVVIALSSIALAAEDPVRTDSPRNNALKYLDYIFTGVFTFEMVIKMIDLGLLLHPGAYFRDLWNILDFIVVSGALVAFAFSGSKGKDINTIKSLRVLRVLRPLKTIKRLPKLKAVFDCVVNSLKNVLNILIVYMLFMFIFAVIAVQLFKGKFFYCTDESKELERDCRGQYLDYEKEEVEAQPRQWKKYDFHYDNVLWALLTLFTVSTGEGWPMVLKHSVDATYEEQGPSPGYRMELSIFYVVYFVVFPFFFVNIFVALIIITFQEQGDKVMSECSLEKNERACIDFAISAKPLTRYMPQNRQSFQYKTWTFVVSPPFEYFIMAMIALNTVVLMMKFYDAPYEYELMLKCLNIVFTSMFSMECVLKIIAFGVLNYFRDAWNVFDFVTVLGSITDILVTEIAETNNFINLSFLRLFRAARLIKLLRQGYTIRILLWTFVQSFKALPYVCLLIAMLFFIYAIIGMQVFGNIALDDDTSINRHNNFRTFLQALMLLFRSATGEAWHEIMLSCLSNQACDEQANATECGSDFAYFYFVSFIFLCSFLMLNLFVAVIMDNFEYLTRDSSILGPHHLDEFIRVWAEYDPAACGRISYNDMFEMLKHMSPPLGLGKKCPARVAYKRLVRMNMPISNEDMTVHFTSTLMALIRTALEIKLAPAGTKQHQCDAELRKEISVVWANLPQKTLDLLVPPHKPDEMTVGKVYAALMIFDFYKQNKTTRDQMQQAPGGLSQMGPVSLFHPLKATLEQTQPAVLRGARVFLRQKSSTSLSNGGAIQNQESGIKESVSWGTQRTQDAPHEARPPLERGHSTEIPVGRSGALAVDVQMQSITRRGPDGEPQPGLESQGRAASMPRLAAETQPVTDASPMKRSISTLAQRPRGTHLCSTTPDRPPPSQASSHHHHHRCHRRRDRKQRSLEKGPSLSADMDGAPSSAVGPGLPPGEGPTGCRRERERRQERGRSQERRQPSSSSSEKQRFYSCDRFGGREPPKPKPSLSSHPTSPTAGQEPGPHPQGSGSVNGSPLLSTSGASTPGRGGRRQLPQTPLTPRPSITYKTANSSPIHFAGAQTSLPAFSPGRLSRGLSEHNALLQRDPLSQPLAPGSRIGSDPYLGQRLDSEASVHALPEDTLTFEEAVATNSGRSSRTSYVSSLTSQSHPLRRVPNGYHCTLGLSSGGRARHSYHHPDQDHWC

[2] = test system: Mus musculus; test: Ability to prevent the audiogenic seizure (tonic seizure phase) in DBA/2 mice (N = 5 mice/ dose tested) tested in vivo at a concentration of 10 mg/kg; assay type: functional
[3] = test system: Mus musculus; test: Ability to prevent the audiogenic seizure (tonic seizure phase) in DBA/2 mice (N = 5 mice/ dose tested) tested in vivo at a concentration of 3 mg/kg; assay type: functional
[4] = test system: Mus musculus; test: Ability to prevent the audiogenic seizure (tonic seizure phase) in DBA/2 mice (N = 5 mice/ dose tested) tested in vivo at a concentration of 100 mg/kg; assay type: functional

SMILES | IC50 [1] [nM] | further results
CC(C)C[C@@H](C(=O)N[C@@H](Cc1ccc(OC(=O)c2ccccc2)cc1)C(=O)NC(C)(C)C)N(C)CCC(C)(C)C | 400 | –
CCOC(=O)CN(C)[C@@H](CC(C)C)C(=O)N[C@@H](Cc1ccc(OC(=O)c2ccccc2)cc1)C(=O)NC(C)(C)C | 4400 | –
CC(C)C[C@@H](C(=O)N[C@@H](Cc1ccc(OC(=O)c2ccccc2)cc1)C(=O)NC(C)(C)C)N1CCCCC1 | 1400 | –
CC(C)C[C@@H](C(=O)N[C@@H](Cc1ccc(OC(=O)c2ccccc2)cc1)C(=O)NC(C)(C)C)N(C)C1CCOCC1 | 3100 | –
CCCCN(C)[C@@H](CC(C)C)C(=O)N[C@@H](Cc1ccc(OC(=O)c2ccccc2)cc1)C(=O)NC(C)(C)C | 280 | –
CC(C)CCN(C)[C@@H](CC(C)C)C(=O)N[C@@H](Cc1ccc(OC(=O)c2ccccc2)cc1)C(=O)NC(C)(C)C | 320 | Protection [2]: 80%; Protection [3]: 20%
CC(C)C[C@H](NC(=O)N1CCCCCC1)C(=O)N[C@@H](Cc1ccc(OC(=O)c2ccccc2)cc1)C(=O)NC(C)(C)C | 590 | –
CC(C)C[C@@H](C(=O)N[C@@H](Cc1ccc(OC(=O)c2ccccc2)cc1)C(=O)NC(C)(C)C)N(C)C(C)C | 2800 | –
CC(C)C[C@@H](C(=O)N[C@@H](Cc1ccc(OC(=O)c2ccccc2)cc1)C(=O)NC(C)(C)C)N(C)C | 2300 | –
CC(C)C[C@@H](C(=O)N[C@@H](Cc1ccc(OC(=O)c2ccccc2)cc1)C(=O)NC(C)(C)C)N(C)C1CCCCC1 | 200 | Protection [4]: 100%; Protection [3]: 20%
CN[C@@H](CC(C)C)C(=O)N[C@@H](Cc1ccc(OC(=O)c2ccccc2)cc1)C(=O)NC(C)(C)C (H-[NMeL]-Tyr(Bz)-NHtBu) | 2300 | –

More lines, main results first:

IC50 [1] [nM] | SMILES | further results
320 | CC(C)C[C@H](NC(=O)N1CCCCCC1)C(=O)N[C@@H](Cc1ccc(OC(=O)c2ccccc2)cc1)C(=O)OC(C)(C)C | –
6400 | CC(C)C[C@@H](C(=O)N[C@@H](Cc1ccc(OC(=O)c2ccccc2)cc1)C(=O)NC(C)(C)C)N1CCOCC1 | –
2200 | CC(C)C[C@@H](C(=O)N[C@@H](Cc1ccc(OC(=O)c2ccccc2)cc1)C(=O)NC(C)(C)C)N(C)CCC(C)O (some centres undefined) | Protection [2]: 40%
1500 | CCC(C)N(C)[C@@H](CC(C)C)C(=O)N[C@@H](Cc1ccc(OC(=O)c2ccccc2)cc1)C(=O)NC(C)(C)C (some centres undefined) | –
380 | CC(C)C[C@@H](C(=O)N[C@@H](Cc1ccc(OC(=O)c2ccccc2)cc1)C(=O)NC(C)(C)C)N(C)CC(C)C | –
700 | CC(C)C[C@@H](C(=O)N[C@@H](Cc1ccc(OC(=O)c2ccccc2)cc1)C(=O)NC(C)(C)C)N(C)CC1CCCCC1 | Protection [2]: 20%
3800 | CC(C)C[C@H](N)C(=O)N[C@@H](Cc1ccc(OC(=O)c2ccccc2)cc1)C(=O)NC(C)(C)C (H-Leu-Tyr(Bz)-NHtBu) | –
